Assay results from US9879011B2, “Amorphous form of linagliptin and process for preparation thereof” (CADILA HEALTHCARE LIMITED, priority 2012, dated 2018).

Assay: storage stability of amorphous form (polymorphic form by x-ray powder diffraction)
Type: physicochemical
Settings: amorphous form dried under vacuum at about 50° C. to 70° C.; ordinary stability conditions (75% RH at 40° C. or 60% RH at 25° C.); no change in polymorphic form by XRPD
Protocol: The obtained linagliptin may be dried under vacuum at about 50° C. to 70° C. for 6-12 hours to get amorphous form substantially free from residual solvents. Thus obtained amorphous linagliptin is stable under ordinary stability conditions at least for 3 months and doesn't change to crystalline form.
The stable amorphous form of linagliptin may be stored under nitrogen atmosphere and packed in a double polythene bag tied with a thread, keeping primary packing containing amorphous linagliptin inside a black color polyethylene bag containing oxygen busters and sealing it, placing above the double polyethylene bag inside a triple laminated bag optionally containing oxygen busters and sealing it, and placing the sealed triple laminated bag inside a closed high density polyethylene (HDPE) container and storing in controlled environment chamber at about 25° C. and/or 40° C.
The X-ray powder diffraction spectrum was measured under the following experimental conditions: • Instrument: X-Ray Diffractometer, D/Max-2200/PC Make: Rigaku, Japan. • X-Ray: Cu/40 kv/40 mA • Diverging: 10 • Scattering Slit: 10 • Receiving Slit: 0.15 mm • Monochromator RS: 0.8 mm • Counter: Scintillation Counter • Scan Mode: Continuous • Scan Speed: 3.0000/Min • Sampling Width: 0.020 • Scan Axes: Two Theta/Theta • Scan Range: 2.0000 to 40.0000 • Theta Offset: 0.0000

For `CC#CCn1c(N2CCC[C@@H](N)C2)nc2c1c(=O)n(Cc1nc(C)c3ccccc3n1)c(=O)n2C` [amorphous linagliptin, 8-[(R)-3-aminopiperidin-1-yl]-7-(but-2-yn-1-yl)-3-methyl-1-[(4-methyl-quinazolin-2-yl)methyl]-3,7-dihydro-1H-purine-2,6-dione], the “stable under ordinary stability conditions, doesn't change to crystalline form” value was at least 3 months.
